Data: US9187468B2, “Topical ocular analgesic agents” (Novartis AG, priority 2013, dated 2015)

What was measured:
[1] = tested on: formalin-induced blinking in rats; assay: Formalin blink test (topical ocular analgesia); assay type: in vivo; settings: rat
Procedure: Formalin was prepared at 0.1% final in 0.9% saline from a stock of 10% neutral buffered formalin (Sigma-Aldrich, St. Louis, Mo.). […] The structure of Compound A is.
All compounds were formulated in a 10% hydroxypropyl-β-cyclodextrin (HPβCD) 1×PBS vehicle. Compounds were prepared as 1% stock solutions in absolute ethanol. An appropriate amount of the stock solution was transferred to a glass vial from which the solvent was evaporated, then the compound was re-suspended in appropriate volumes of vehicle and ball-milled overnight at 4° C. All compounds were tested at 0.01%, 0.1%, 0.3%, and 1% w/v, unless otherwise noted. Alcaine® (Alcon Laboratories, Fort Worth, Tex.) was used as a reference compound.
Rats were dosed with 5 μL, of formalin vehicle (0.9% sterile saline) in OS eye. After a 5-second acclimation period, blinks were counted for one minute. Test compound or vehicle was dosed (5 μL) on OD eye. At 5 minutes after test compound treatment (unless otherwise noted), 0.1% formalin was dosed in the OD eye. Blinks were counted in the same manner as the OS eye.
The efficacy data for these compounds are plotted in FIGS. 1, 3, 4, and 5, with % inhibition of formalin-induced blink rate indicated above the bar for each tested concentration.

[2] = tested on: nylon fiber ocular surface touching-induced blinking in rats; assay: Cochet-Bonnet esthesiometry test (anesthetic activity); assay type: in vivo; settings: rat, topical ocular; for anesthesia in Cochet-Bonnet esthesiometry test: concentration range that afforded efficacious analgesia in the formalin blink test
Procedure: Cochet-Bonnet Esthesiometry Test
For the Cochet-Bonnet esthesiometry test that measures anesthetic activity, whiskers were trimmed from test animals or vehicle animals. OD eye of animal was dosed with 5 μL of test compound or vehicle. The animal was restrained in a clear plastic cone (DecapiCone®, Alcon Laboratories, Fort Worth, Tex.) which was trimmed as necessary to allow access to the OD eye. Five minutes after application of test compound, a Cochet-Bonnet esthesiometer, with a nylon monofilament diameter of 0.12 mm and length of 40 mm (0.8 g/mm^2), was applied perpendicularly to the central cornea of the OD eye 10 times. This test was performed three times on each animal within 2 minutes. Data were expressed as the mean number of blinks elicited from 10 stimuli.

[3] = tested on: rat spinal ligation model of neuropathic pain; settings: orally dosed at 10 mg/kg, comparators at 3-10 times higher doses; cited from earlier work

CC(=O)Nc1cccc(Nc2ncnc(N3CCC(OCc4ccc(OC(F)(F)F)cc4)CC3)n2)c1C [Compound 1]
maximum efficacy as topical ocular analgesic compared to Compounds A and B ([1]; FIG. 1 vs FIGS. 3 and 4): more efficacious
potency as topical ocular analgesic compared to Compounds A and B ([1]; FIG. 1 vs FIGS. 3 and 4): significantly more potent
% reduction of formalin-induced blink rate vs vehicle ([1]; drug concentrations ≧0.05% w/v (tested 0.01%-0.3% w/v)): > 50%
anesthesia in Cochet-Bonnet esthesiometry test [2]: did not elicit observable anesthesia
anesthetic effect (touch-induced blinking) compared to vehicle ([2]; drug concentrations up to 0.3% w/v (0.05-0.3%)): did not elicit a statistically significant anesthetic effect

Fc1cccc(Cn2ccc3c(OC4CCN(Cc5cscn5)CC4)ncnc32)c1F [Compound C]
dose dependence of analgesic efficacy ([1]; 0.01-0.2% w/v): dose-related increase in efficacy
maximum efficacy (% inhibition of formalin-induced blink rate) ([1]; top tested dose of 0.01-0.2% w/v range): 61%
anesthetic effect (touch-induced blinking) ([2]; 0.1% and 0.2% doses): elicited significant anesthesia
anesthesia in Cochet-Bonnet esthesiometry test [2]: profound anesthesia

NC(=O)c1nc(-c2cccc(-c3ccccc3OC(F)(F)F)c2)cs1 [Compound B, 4-(2′-(trifluoromethoxy)-[1,1′-biphenyl]-3-yl)thiazole-2-carboxamide]
% reduction of formalin-induced blink rate ([1]; 0.01% w/v dose): no effect
% reduction of formalin-induced blink rate ([1]; 0.1% w/v dose): no effect
% reduction of formalin-induced blink rate ([1]; 0.3% w/v dose): ~40%
% reduction of formalin-induced blink rate ([1]; 1% w/v dose): ~40%
therapeutic efficacy vs mexiletene, lamotrigene and carbamazepine [3]: significantly more therapeutically efficacious

CCCCCN1C(=O)C2(COc3cc4c(cc32)OCO4)c2ccccc21 (stereo not drawn) [Compound A, 1′-pentyl-6H-spiro[[1,3]dioxolo[4,5-f]benzofuran-7,3′-indolin]-2′-one]
% reduction of formalin-induced blink rate ([1]; 0.1% w/v dose): 27%
